Read-outs that look alike come from different tables or passages of the source.

In data set [1] the test system is green peach aphids (Myzus persicae). As to the kind of experiment: Myzus persicae oral test. Type of data set: in vivo. The conditions noted are these: application rate 20 ppm, after 5 days, oral, 100% = all aphids killed; for pest or weed control at 20 ppm: Myzus persicae, 120 h, read-out: efficacy in %. The protocol:
(§1) Solvent: 100 parts by weight of acetone
Subsequently, the plates are sealed with parafilm, which a mixed population of green peach aphids (Myzus persicae) within a second microtitre plate is able to puncture and imbibe the solution through it.
After 5 days, the efficacy in % is determined. 100% means that all the aphids have been killed; 0% means that no aphids have been killed.

The test system of data set [2] is green peach aphid (Myzus persicae). The experiment in a line: Myzus persicae spray test (bell pepper plants). The conditions noted are these: application rate 20 ppm, after 6 days, 100% = all aphids killed. Type of data set: in vivo. The protocol:
(§2) Myzus persicae—Spray Test
Solvent: 14 parts by weight of dimethylformamide
(§3) Emulsifier: alkylaryl polyglycol ether
If the addition of ammonium salts or/and penetrants is required, these are each added in a concentration of 1000 ppm to the formulation solution.
Bell pepper plants (Capsicum annuum) severely infested with the green peach aphid (Myzus persicae) are treated by spraying with the active compound formulation in the desired concentration.
After 6 days, the kill in % is determined. 100% means that all of the aphids have been killed; 0% means that none of the aphids have been killed.

Data set [3] is described as follows: log P by HPLC on reversed-phase column (C18), EEC directive 79/831 Annex V.A8. Type of data set: physicochemical. The conditions noted are these: for chromatographic logP: neutral range, pH 7.8, HPLC C18, 43° C.; for logP [n]: pH 7.8.
Data set [4] has as its system green peach aphids (Myzus persicae). As to the kind of experiment: Myzus persicae oral test (MYZUPE O), comparison with prior art. The conditions noted are these: Myzus persicae, po, 120 h, MYZUPE O, 5 dat, read-out: % efficacy. The format is in vivo. The protocol: Myzus persicae—Oral Test (MYZUPE O)
as §1
50 μl of the active compound preparation are transferred into microtitre plates and made up to a final volume of 200 μl with 150 μl of IPL41 insect medium (33%+15% sugar). Subsequently, the plates are sealed with parafilm, which a mixed population of green peach aphids (Myzus persicae) within a second microtitre plate is able to puncture and imbibe the solution through it.
(§4) After the desired period of time (dat), the efficacy in % is determined. 100% means that all the aphids have been killed; 0% means that no aphids have been killed.

Data set [5] relates to green peach aphid (Myzus persicae). As to the kind of experiment: Myzus persicae spray test (Chinese cabbage leaf discs). Type of data set: in vivo. The conditions noted are these: application rate 500 g/ha, after 5-6 days, Chinese cabbage leaf discs, 100% = all aphids killed; for pest or weed control at 500 g/ha: Myzus persicae, foliar, read-out: efficacy in %. The protocol:
as §2
To produce a suitable active ingredient formulation, 1 part by weight of active ingredient is dissolved with the stated parts by weight of solvent and made up with water containing an emulsifier concentration of 1000 ppm until the desired concentration is attained. To produce further test concentrations, the formulation is diluted with emulsifier-containing water.
After 5-6 days, the efficacy in % is determined. 100% means that all the aphids have been killed; 0% means that no aphids have been killed.

In data set [6] the test system is greenhouse red spider mite (Tetranychus urticae). The experiment in a line: Tetranychus urticae spray test, OP-resistant. Type of data set: in vivo. The note with it: application rate 500 g/ha, after 6 days, bean leaf discs; 100% = all spider mites killed. The protocol:
Tetranychus urticae—Spray Test, OP-Resistant
After 6 days, the efficacy in % is determined. 100% means that all the spider mites have been killed; 0% means that no spider mites have been killed.

The test system of data set [7] is engorged adult female cattle ticks (Boophilus microplus). As to the kind of experiment: Boophilus microplus injection test. The note with it: 20 μg/animal, assessed after 7 days, 100% = no tick laid fertile eggs. Type of data set: in vivo. The protocol:
Boophilus microplus—Injection Test
Solvent: dimethyl sulphoxide
To produce a suitable preparation of active compound, 10 mg of active compound are mixed with 0.5 ml of solvent and the concentrate is diluted with solvent to the desired concentration.
1 μl of the active compound solution is injected into the abdomen of 5 engorged adult female cattle ticks (Boophilus microplus). The animals are transferred into dishes and kept in a climate-controlled room.
Efficacy is assessed after 7 days by laying of fertile eggs. Eggs which are not visibly fertile are stored in a climate-controlled cabinet until the larvae hatch after about 42 days. An efficacy of 100% means that none of the ticks has laid any fertile eggs; 0% means that all the eggs are fertile.

The subject of data set [8] is green peach aphid (Myzus persicae). As to the kind of experiment: Myzus persicae spray test (MYZUPE), comparison with prior art. The format is in vivo. The conditions noted are these: Myzus persicae, 120 h; MYZUPE, 100 g of ai/ha, 5 dat; read-out: % efficacy. The protocol:
Myzus persicae—Spray Test (MYZUPE)
as §3, §4

Data set [9] relates to caterpillars of the armyworm (Spodoptera frugiperda). The note with it: application rate 500 g/ha, after 7 days, maize leaf discs; 100% = all caterpillars killed. The protocol: Spodoptera Frugiperda—Spray Test
as §3
To produce further test concentrations, the formulation is diluted with emulsifier-containing water.
After 7 days, the efficacy in % is determined. 100% means that all the caterpillars have been killed; 0% means that no caterpillar has been killed.

Data set [10] has as its system larvae of the mustard beetle (Phaedon cochleariae). The conditions noted are these: application rate 500 g/ha, after 7 days, Chinese cabbage leaf discs; 100% = all beetle larvae killed.
Description: Phaedon cochleariae—Spray Test
After 7 days, the efficacy in % is determined. 100% means that all the beetle larvae have been killed; 0% means that no beetle larvae have been killed.
The mark [11] stands for this setting: reversed-phase HPLC column (C18), Table 1, read-out: logP [n].

Turning to `CN(C(=O)c1cnc(C2OCCCO2)n1C)c1cccnc1` [I-1-006], the pest or weed control at 20 ppm in [1] came to 100%. Moreover, the “kill in % (efficacy)” value in data set [2] is 98%. The chromatographic logP in data set [3] (setting [11]) is 0.92. In addition, in [4], the Emax at 0.8 ppm stood at 100% and the Emax at 4 ppm was 100%.

In the case of `CN(C(=O)c1cnc(/C=N/OCC2CC2)n1C)c1cccnc1` [I-1-008, 2-[(E)-(Cyclopropylmethoxyimino)methyl]-N,1-dimethyl-N-(pyridin-3-yl)-1H-imidazole-5-carboxamide], in data set [1], the pest or weed control at 20 ppm stood at 100%. The pest or weed control at 500 g/ha in data set [5] was 100%. Further, the efficacy in % in [6] worked out at 90%. Moreover, in data set [3] (reversed-phase HPLC column (C18), preparation examples, read-out: log P[n]), the chromatographic logP was determined as 1.78.

Regarding `CN(C(=O)c1cnc(/C=N/OCc2ccc(Cl)cc2)n1C)c1cccnc1` [I-1-010], the efficacy in % in data set [1], in data set [5] and in data set [6] was 90% in each case. For the same compound, the “logP [n]” value in data set [3] is given as 2.43.

Turning to `CN(C(=O)c1cnc(/C=N/OCC(F)(F)F)n1C)c1cccnc1` [I-1-031], the efficacy in % was determined as 100% in [1] and 90% in data set [5]. In data set [7], the “efficacy (laying of fertile eggs)” value came out at 80%. The “logP [n]” value in [3] came to 1.68.

For the compound `CN(C)C(=O)c1ncc(C(=O)N(C)c2cccnc2)n1C` [I-1-033], the pest or weed control at 20 ppm in [1] was determined as 100%. For the same compound, the pest or weed control at 500 g/ha in data set [5] worked out at 100%. In addition, the Emax at 100 g/ha in data set [8] was 90%. Besides, the chromatographic logP in [3] (setting [11]) worked out at 0.6. For the same compound, in data set [4], the Emax at 0.8 ppm was determined as 100% and the Emax at 4 ppm amounted to 100%.

In the case of `CN(C(=O)c1cnc(/C=N/OC(C)(C)C)n1C)c1cccnc1` [I-1-037], the efficacy in % in [1] and in [5] was 100% each time. For the same compound, in data set [7], the “efficacy (laying of fertile eggs)” value amounted to 90%. Further, the “logP [n]” value in data set [3] came out at 1.99.

For `CCN(C(=O)c1cnc(C=O)n1C)c1cccnc1` [I-1-039], the efficacy in % in data set [1] worked out at 100%; in data set [9], 83%; in data set [10], 100%. In [3], the “logP [n]” value is given as 0.97.

Consider `CCN(C(=O)c1cnc(C=NN(C)C(=O)OC)n1C)c1cccnc1` [I-1-045], for which the pest or weed control at 20 ppm in [1] came out at 100%. Moreover, the pest or weed control at 500 g/ha in data set [5] worked out at 90%. The Emax at 100 g/ha in data set [8] stood at 90%. The chromatographic logP in [3] (Table 1, read-out: logP [n]) came to 1.28. For the same compound, the Emax at 4 ppm in data set [4] was found to be 100%.

On to `CN(C(=O)c1cnc(C(=O)Nc2ccccc2)n1C)c1cccnc1` [I-1-047], for which the pest or weed control at 20 ppm in [1] worked out at 100%. Besides, the pest or weed control at 500 g/ha in data set [5] is 100%. For the same compound, in [8], the Emax at 100 g/ha came to 90%. For the same compound, the chromatographic logP in data set [3] (setting [11]) was found to be 1.82. Besides, the Emax at 4 ppm in [4] was found to be 100%.

Turning to `CN(C(=O)c1cnc(C(=O)NCc2ccccc2)n1C)c1cccnc1` [I-1-050], the pest or weed control at 20 ppm in [1] came out at 100%. The pest or weed control at 500 g/ha in data set [5] is 90%. Besides, the Emax at 100 g/ha in data set [8] was 90%. Moreover, the chromatographic logP in data set [3] (setting [11]) was determined as 1.75. For the same compound, in [4], the Emax at 0.8 ppm was determined as 90% and the Emax at 4 ppm came to 90%.

On to `CN(C(=O)c1cnc(C(=O)N2CCOCC2)n1C)c1cccnc1` [I-1-059], for which the pest or weed control at 20 ppm in data set [1] came out at 100%. In data set [5], the pest or weed control at 500 g/ha was 100%. Further, the Emax at 100 g/ha in data set [8] came out at 100%. In addition, the chromatographic logP in data set [3] (setting [11]) turned out to be 0.73. The Emax at 4 ppm in data set [4] came out at 100%.

Regarding `CCn1c(C(=O)N(C)c2cccnc2)cnc1C(=O)N(C)C` [I-1-074], the pest or weed control at 20 ppm in [1] worked out at 90%. The pest or weed control at 500 g/ha in data set [5] is 100%. In addition, the Emax at 100 g/ha in [8] turned out to be 90%. Moreover, the chromatographic logP in [3] (setting [11]) stood at 0.86. Besides, in data set [4], the Emax at 0.8 ppm is 100% and the Emax at 4 ppm came out at 100%.

As for `CN(C(=O)c1cnc(C(=O)NCC#N)n1C)c1cccnc1` [I-1-076], in [1], the pest or weed control at 20 ppm came to 100%. Further, the pest or weed control at 500 g/ha in data set [5] worked out at 100%. In [6], this compound had an efficacy in % of 90%. The Emax at 100 g/ha in data set [8] came out at 90%. Also, the chromatographic logP in data set [3] (setting [11]) came out at 0.78. In data set [4], the Emax at 0.8 ppm was found to be 90% and the Emax at 4 ppm is 90%.

Source of the values: patent US20190045783A1, “SUBSTITUTED IMIDAZOLYLCARBOXAMIDES AS PESTICIDES” (BAYER CROPSCIENCE AKTIENGESELLSCHAFT, priority 2016, published 2019).
